The results in this text go back to paper PMC9377007, “An Unexpected Deuterium-Induced Metabolic Switch in Doxophylline” (ACS Medicinal Chemistry Letters, 2022).

The subject of data set [1] is BLM-induced lung injury. The data set can be described thus: Bleomycin (BLM)-induced lung injury model. It counts as in vivo. Conditions: BLM-treated mice, 80 mg/kg orally daily; for fibrosis: collagen fibers, Masson's Trichrome and Picrosirius red staining, semiquantitative: versus vehicle group. Here is the method:
With regard to the BLM-induced lung injury, we treated mice orally with 80 mg/kg doxophylline, d4-doxophylline, or d7-doxophylline daily (Figure 6a). […] Finally, to investigate the fibrosis, we performed a semiquantitative analysis on the Masson’s Trichrome- and Picrosirius red-stained sections in order to evaluate the presence and the packing of collagen fibers. […] Furthermore, an interesting association of the inflammatory infiltrate and stromal remodeling was observed. Indeed, the decrease in the interstitial inflammatory state led to a reduction of fibrosis in the doxophylline- and d7-treated groups, as can be observed in the respective representative images.
Figure 6 Model of pulmonary fibrosis induced by bleomycin. Doxophylline and d7-doxophylline attenuate BLM-induced structural damage and lung fibrosis in mice. (a) Representative scheme of the BLM-induced lung injury model. (b) Total BAL cellularity of sham mice (not treated) and bleomycin-treated mice (treated or not with 80 mg/kg doxophylline, d4-doxophylline, or d7-doxophylline). Results are reported as mean ± SEM of three independent experiments. (c) Wet/dry lung weight ratio of sham and bleomycin-treated mice (treated or not with 80 mg/kg doxophylline, d4-doxophylline, or d7-doxophylline). Results are reported as mean ± SEM of three independent experiments. (d) MPO activity in lungs of sham and bleomycin-treated mice (treated or not with 80 mg/kg doxophylline, d4-doxophylline and d7-doxophylline). Results are reported as mean ± SEM of three independent experiments. (e) Representative images of H&E staining of sham and bleomycin-treated mice (treated or not with 80 mg/kg doxophylline, d4-doxophylline, or d7-doxophylline). (f, g) Representative images of (f) Masson’s trichrome staining and (g) Picrorius red staining of sham and bleomycin-treated mice (treated or not with 80 mg/kg doxophylline, d4-doxophylline, or d7-doxophylline). p values: *, p < 0.05; **, p < 0.01; ***, p < 0.001; ****, p < 0.0001.
8-week-old male C57Bl/6 mice (Envigo, Indianapolis, USA) weighing between 25 and 30 g were used. Animal care was in compliance with Italian regulations on protection of animals used for experimental purposes and were authorized by the Ministry of Health. We administered BLM (0.02U/50µl) by mouse pharyngeal aspiration, under isoflurane ana esthesia.2 Doxophylline, d4 or d7 ([…], solubilized in 0.9% NaCl solution) or saline treatment (vehicle) was given orally (gavage administration) 1 h before BLM treatment, and then once a day thereafter. Mice were euthanized on day 21 following BLM treatment.
BAL was performed through a tracheal cannula using 1 mL aliquots of ice -cold Ca2+/Mg2+-free phosphate-buffered medium (145 mM NaCl, 5 mM KCl, 1.9 mM NaH 2PO4, 9.35 mM Na2HPO4, and 5.5 mM dextrose, pH 7.4). BAL samples were centrifuged at 500× g for 5 min at 4 °C, and cell pellets were washed an d resuspended in phosphate -buffered medium. BAL cells were enumerated by counting on a Hemocytometer the presence of the trypan blue stain.
Myeloperoxidase (MPO) activity, a marker of polymorphonuclear leukocyte (PMN) infiltration, was determined using MPO Colorimetric Activity Assay Kit (Merck Life Science), according to the manufacturer’s protocol. MPO activity was described as the amount of enzyme degrading 1 μM of peroxide/minute at 37°C and was expressed in U/mg of wet tissue.
Evaluation of fluid content in lungs.
The wet lung weight was calculated after harvesting the lungs, without any extraneous tissue. The lung s were subjected for 72 hours at 100°C and the dry weight was measured. Water content was calculated b y subtracting dry weight from wet weight.
Lungs were fixed with 10% buffered formalin at room temperature for 48h, dehydrated in 70% ethanol, and embedded in paraffin with Diapath automatic processor. Sections (4 μm thick) were stained with hae matoxylin and eosin (H&E) according to standard protocol and samples were mounted in Eukitt (Bio -Optica). To […]

Data set [2] in a line: Comparative pharmacokinetic study, single-dose administration in minipigs. It counts as in vivo. The settings on record: male, Göttingen, minipig, plasma. Here is the method:
A comparative pharmacokinetic study was then performed by evaluating the plasma concentration profiles of doxophylline and its deuterated analogues after intravenous and oral single-dose administration in mice and minipigs. […] Since the deuterium kinetic isotope effect is often affected by interspecies variability,[28] a PK study was also performed in minipigs. […] A total of 96 CD1 male mice, approximately 6 weeks old and with a body weight of approximately 30 g, were purchased from Envigo RMS srl, (San Pietro al Natisone, UD, Italy). Four males Göttingen minipigs approximately 4-5 months old and weighing 9-11 Kg were purchased from Ellegaard Göttingen Minipigs (Dalmose, Denmark). Protocol for drug administration and blood sampling. Mice. Blood samples were collected under light isoflurane anaesthesia from the sublingual vein at the following time points (n=3): pre-dose and 5, 15, 30 minutes, 1, 2, 4, 8 and 24 hours after i.v. dosing (20 mg/Kg, dose volume 5 mL/Kg) and pre-dose and 15, 30 minutes, 1, 2, 4, 8 and 24 hours after oral gavage dosing (80 mg/Kg, dose volume 5 mL/Kg). Each animal was sampled on each day at a maximum of two alternating time points. Samples were transferred into tubes containing K3EDTA as anticoagulant, centrifuged, and stored at -80 °C. Minipig. Blood samples were collected from the jugular vein at the following time points (n=4): pre-dose and 5, 15, 30 minutes, 1, 2, 4, 8 and 24 hours after i.v. dosing (5 mg/Kg, dose volume 1 mL/Kg) and pre-dose and 15, 30 minutes, 1, 2, 4, 8 and 24 hours after oral gavage dosing (20 mg/Kg, dose volume 4 mL/Kg). Samples were transferred into tubes containing K3EDTA as anticoagulant, centrifuged, and stored at -80 °C. Sample preparation for HPLC-MS analysis. A volume of 50 µL of caffeine solution (1 mg/L in water-methanol 1:1) were added to plasma sample aliquots (50 µL); after the addition of the precipitant solution (100 µL of 10% ice-cold trichloroacetic acid in water), samples were centrifuged at 13,000 rpm for ten minutes and the supernatant injected onto the HPLC system (see supporting information for chromatographic conditions). If the levels of analytes were over range, plasma samples were preventively diluted with blank plasma. Data analysis. Quantification of doxophylline and its deuterated analogues d4 and d7 as well as their main metabolites, 7- theophylline acetic acid (T-COOH), 7-hydroxyethyl theophylline (Eto) and theophylline, was performed by using the calibration curves obtained with the corresponding working standards of the analytes and using caffeine as internal standard. The pharmacokinetic parameters for doxophylline and its deuterated analogues were calculated by plotting the plasma concentration curves versus time obtained from the average values of three animals, using PK Solver 2.0.1 S7

A word on the AUC(0-t): it is the area under the concentration-time curve up to a stated or last time point. Low readings indicate less exposure, high ones more exposure. As a reminder, the Cmax is the highest concentration seen after dosing. As usually defined, the clearance is the rate of elimination divided by the concentration. A low value points to inefficient removal. Usually half-life stands for the time needed for the level to fall by half in the phase considered. Read a low half-life as fast loss. A word on the CL/F: it is clearance divided by bioavailability, as obtained after extravascular dosing. `[2H]C1([2H])OC([2H])(C([2H])([2H])n2cnc3c2c(=O)n(C)c(=O)n3C)OC1([2H])[2H]` [d7-doxophylline]: in data set [1], the “MPO activity in lungs” value is “decreased”; the “accumulation of immune cells in bronchoalveolar lavage (total BAL cellularity)” value (shortened to “accumulation of immune cells”) was “significantly reverted”; the “histological examination by H&E staining” value was “decrease in the inflammatory interstitial infiltrate”; the “ratio between wet and dry lung” value is recorded as “decreased liquid accumulation”. Also, the “fibrosis: collagen fibers, Masson's Trichrome and Picrosirius red staining, semiquantitative” value (from here on “fibrosis: collagen fibers”) in data set [1] was “slight tendency toward reduction in thickness and packing of collagen fibers”. In data set [2] (intravenous, 5 mg/kg), the exposure AUC(0-t) turned out to be 47 µg·h/mL, the concentration peaked (Cmax) at 8260 ng/mL, the clearance was 1.67 mL/min/kg and the half-life is 6.5 h. In data set [2] (oral, 20 mg/kg), the AUC(0-t) turned out to be 222 µg·h/mL, the CL/F is 1.17 mL/min/kg, the Cmax amounted to 13000 ng/mL and the half-life is 12.6 h.

For the compound `[2H]C1([2H])OC(Cn2cnc3c2c(=O)n(C)c(=O)n3C)OC1([2H])[2H]` [d4-doxophylline], in data set [1], the “accumulation of immune cells” value was “of lesser extent and lacked statistical significance”; the “histological examination by H&E staining” value is “decrease in the inflammatory interstitial infiltrate”; the “fibrosis: collagen fibers” value was “slight tendency toward reduction in thickness and packing of collagen fibers”. Besides, in data set [2] (intravenous, 5 mg/kg), the AUC(0-t) worked out at 49.2 µg·h/mL, the concentration peaked (Cmax) at 7420 ng/mL, the clearance was 1.67 mL/min/kg and the half-life is 6.2 h. In data set [2] (oral, 20 mg/kg), this compound gave an AUC(0-t) of 236 µg·h/mL, a CL/F of 1.17 mL/min/kg, a Cmax of 15800 ng/mL and a half-life of 10.8 h.

Take `Cn1c(=O)c2c(ncn2CC2OCCO2)n(C)c1=O` [doxophylline]: in data set [1], the “MPO activity in lungs” value was “decreased”; the “accumulation of immune cells” value is recorded as “significantly reverted”; the “histological examination by H&E staining” value was “decrease in the inflammatory interstitial infiltrate”; the “ratio between wet and dry lung” value is recorded as “decreased liquid accumulation”. The “fibrosis: collagen fibers” value in data set [1] was “slight tendency toward reduction in thickness and packing of collagen fibers”. Further, in data set [2] (intravenous, 5 mg/kg), the AUC(0-t) is 47.7 µg·h/mL, the Cmax stood at 7500 ng/mL, the clearance was 1.67 mL/min/kg and the half-life was 6.2 h. Further, in data set [2] (oral, 20 mg/kg), the AUC(0-t) worked out at 217 µg·h/mL, the CL/F was 1.17 mL/min/kg, the concentration peaked (Cmax) at 14000 ng/mL and the half-life was 11 h.
